Measured values reported in US20070249620A1, “Urea Derivative” (priority 2004, published 2007).

Columns and labels:
mouse DGAT1 = biological target: T1, mouse DGAT1 (Mus musculus, UniProt Q9Z2A7); test: DGAT1 inhibitory effect test (microsome fraction, [14C]-oleoyl-CoA, triglyceride radioactivity by TLC); assay type: biochemical; settings: 0.5 h; concentration of the test compound 0.1 μg/ml; mouse DGAT1 microsomes, 23° C., 30 minutes; read-out: Inhibitory ratio
T1 construct: made in house; host or cells: insect cells (High Five, Sf9, Sf21, etc.), baculovirus expression system (Invitrogen)
T1 sequence (Q9Z2A7 1-498): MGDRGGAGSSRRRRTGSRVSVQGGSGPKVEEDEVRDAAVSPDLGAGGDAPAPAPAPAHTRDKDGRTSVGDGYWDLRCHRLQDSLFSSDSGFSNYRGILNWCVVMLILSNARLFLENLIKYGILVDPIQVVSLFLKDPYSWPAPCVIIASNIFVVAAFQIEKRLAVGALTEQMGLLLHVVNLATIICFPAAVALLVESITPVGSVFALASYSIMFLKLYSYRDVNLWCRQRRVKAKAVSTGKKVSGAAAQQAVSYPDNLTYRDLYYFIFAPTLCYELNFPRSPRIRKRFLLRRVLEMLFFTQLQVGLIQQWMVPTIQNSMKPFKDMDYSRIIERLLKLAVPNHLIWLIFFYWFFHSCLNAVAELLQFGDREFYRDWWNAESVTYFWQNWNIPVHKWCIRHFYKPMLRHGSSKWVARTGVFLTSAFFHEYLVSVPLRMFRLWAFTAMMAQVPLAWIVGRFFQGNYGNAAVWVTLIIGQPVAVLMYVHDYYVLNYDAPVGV
Experimental: The cDNA which encodes mouse DGAT1 was cloned from a mouse cDNA library by polymerase chain reaction (hereinafter referred to as “PCR”) and introduced into an insect cell virus vector (baculovirus expression system, Invitrogen). After insect cells (High Five, Sf9, Sf21, etc., Invitrogen) were infected with the virus, the cells were collected in buffer A [0.1M sucrose, 50 mM KCl, 40 mM potassium phosphate (pH 7.4), 30 mM EDTA, 1% Protease inhibitor cocktail (SIGMA, P-8340)] and crushed with a Polytron homogenizer. The supernatant obtained by subjecting the homogenate to low speed centrifugal processing (10,000 ×g, 30 minutes) was further subjected to higher-speed centrifugal processing (100,000 ×g, 60 minutes) and the precipitate was resuspended in buffer A as the microsome fraction and used as DGAT1 enzyme. The DGAT1 enzyme was divided into small volumes and stored at −80° C.
(2) DGAT1 Inhibitory Effect Test
The reaction liquid of the following composition [175 mM Tris-HCl (pH 8.0), 8 mM MgCl2, 1 mg/ml BSA, 0.5 mM 1,2-dioleoyl-sn-glycerol (EtOH solution of 10-fold concentration, 10% added), 30 μM[14C]-oleoyl-CoA (about 50 mCi/mmol), 0.5% triton X-100, DGAT1 enzyme (10 μg) obtained in Test Example 1(1), test compound or vehicle (DMSO/MeOH, 7:3 solution, 5% added), total volume 50 μl] was incubated at room temperature (23° C.) for 30 minutes. A reaction terminating solution (70 μl) consisting of isopropanol/1-heptane/water (80:20:2, v/v/v) was added to the reaction solution and stirred, and subsequently stirred with water (30 μl) and 1-heptane (100 μl). The 1-heptane layer (50 μl) was spotted onto a TLC plate and developed with a developing solvent consisting of 1-hexane/diethyl ether/acetic acid (85:15:1, v/v/v). Radioactivity of triglyceride fraction was quantified by BAS2000 bio image analyzer (Fuji Film) and the inhibitory effect of the test compounds was calculated by the following formula through comparison with control. Here, radioactivity at no reaction (0 minutes incubation) was assumed as background. Inhibitory ratio=100−[(Radioactivity when test compound was added)−(Background)]/[(Radioactivity by control)−(Background)]×100

SMILES	melting point [°C]	inhibition at 0.1 µg/mL (mouse DGAT1) [%]
CCOc1ccc(C)cc1NC(=O)Nc1ccc(N2CCN(C(=O)Nc3ccccc3C)CC2)cc1 [Example 84, 4-{4-[3-(2-ethoxy-5-methyl-phenyl)-ureido]-phenyl}-piperazine-1-carboxylic acid o-tolylamide]	190 to 192	≥ 50
CCOc1ccc(C)cc1NC(=O)Nc1ccc(N2CCN(C(=O)Nc3c(C)cccc3Cl)CC2)cc1 [Example 85, 4-{4-[3-(2-ethoxy-5-methyl-phenyl)-ureido]-phenyl}-piperazine-1-carboxylic acid (2-chloro-6-methyl-phenyl)-amide]	157 to 159	≥ 50
COc1ccc(C)cc1NC(=O)Nc1ccc(N2CCN(C(=O)Nc3ccc(Cl)cc3C(F)(F)F)CC2)cc1 [Example 86, 4-{4-[3-(2-methoxy-5-methyl-phenyl)-ureido]-phenyl}-piperazine-1-carboxylic acid (4-chloro-2-trifluoromethyl-phenyl)-amide]	186 to 187	≥ 50
COc1ccc(C)cc1NC(=O)Nc1ccc(N2CCN(C(=O)Nc3ccc(F)cc3C(F)(F)F)CC2)cc1 [Example 87, 4-{4-[3-(2-methoxy-5-methyl-phenyl)-ureido]-phenyl}-piperazine-1-carboxylic acid (4-fluoro-2-trifluoromethyl-phenyl)-amide]	172 to 174	≥ 50
COc1ccc(C)cc1NC(=O)Nc1ccc(N2CCN(C(=O)Nc3c(C)cc(C)cc3C)CC2)cc1 [Example 88, 4-{4-[3-(2-methoxy-5-methyl-phenyl)-ureido]-phenyl}-piperazine-1-carboxylic acid (2,4,6-trimethyl-phenyl)-amide]	215 to 217	≥ 50
CCOc1ccc(F)cc1NC(=O)Nc1ccc(N2CCN(C(=O)Nc3ccccc3C(F)(F)F)CC2)cc1 [Example 89, 4-{4-[3-(2-ethoxy-5-fluoro-phenyl)-ureido]-phenyl}-piperazine-1-carboxylic acid (2-trifluoromethyl-phenyl)-amide]	197 to 199	≥ 50
CCOc1ccc(F)cc1NC(=O)Nc1ccc(N2CCN(C(=O)Nc3ccccc3C)CC2)cc1 [Example 90, 4-{4-[3-(2-ethoxy-5-fluoro-phenyl)-ureido]-phenyl}-piperazine-1-carboxylic acid o-tolylamide]	186 to 187	≥ 50
CCOc1ccc(F)cc1NC(=O)Nc1ccc(N2CCN(C(=O)Nc3c(C)cccc3Cl)CC2)cc1 [Example 91, 4-{4-[3-(2-ethoxy-5-fluoro-phenyl)-ureido]-phenyl}-piperazine-1-carboxylic acid (2-chloro-6-methyl-phenyl)-amide]	197 to 199	≥ 50
CCOc1ccc(F)cc1NC(=O)Nc1ccc(N2CCN(C(=O)Nc3c(C)cccc3C)CC2)cc1 [Example 92, 4-{4-[3-(2-ethoxy-5-fluoro-phenyl)-ureido]-phenyl}-piperazine-1-carboxylic acid (2,6-dimethyl-phenyl)-amide]	205 to 206	≥ 50
CCOc1ccc(F)cc1NC(=O)Nc1ccc(N2CCN(C(=O)Nc3c(F)cccc3C(F)(F)F)CC2)cc1 [Example 93, 4-{4-[3-(2-ethoxy-5-fluoro-phenyl)-ureido]-phenyl}-piperazine-1-carboxylic acid (2-fluoro-6-trifluoromethyl-phenyl)-amide]	153 to 155	≥ 50
CCOc1ccc(F)cc1NC(=O)Nc1ccc(N2CCN(C(=O)Nc3c(Cl)cccc3Cl)CC2)cc1 [Example 94, 4-{4-[3-(2-ethoxy-5-fluoro-phenyl)-ureido]-phenyl}-piperazine-1-carboxylic acid (2,6-dichloro-phenyl)-amide]	212 to 214	≥ 50
COc1ccc(F)cc1NC(=O)Nc1ccc(N2CCN(C(=O)Nc3ccccc3C(F)(F)F)CC2)cc1 [Example 96, 4-{4-[3-(5-fluoro-2-methoxy-phenyl)-ureido]-phenyl}-piperazine-1-carboxylic acid (2-trifluoromethyl-phenyl)-amide]	229 to 230	≥ 50
COc1ccc(F)cc1NC(=O)Nc1ccc(N2CCN(C(=O)Nc3ccccc3C)CC2)cc1 [Example 97, 4-{4-[3-(5-fluoro-2-methoxy-phenyl)-ureido]-phenyl}-piperazine-1-carboxylic acid o-tolylamide]	222 to 224	≥ 50
COc1ccc(F)cc1NC(=O)Nc1ccc(N2CCN(C(=O)Nc3c(C)cccc3Cl)CC2)cc1 [Example 98, 4-{4-[3-(5-fluoro-2-methoxy-phenyl)-ureido]-phenyl}-piperazine-1-carboxylic acid (2-chloro-6-methyl-phenyl)-amide]	240 to 241	≥ 50
COc1ccc(F)cc1NC(=O)Nc1ccc(N2CCN(C(=O)Nc3c(C)cccc3C)CC2)cc1 [Example 99, 4-{4-[3-(5-fluoro-2-methoxy-phenyl)-ureido]-phenyl}-piperazine-1-carboxylic acid (2,6-dimethyl-phenyl)-amide]	226 to 228	≥ 50
COc1ccc(F)cc1NC(=O)Nc1ccc(N2CCN(C(=O)Nc3c(F)cccc3C(F)(F)F)CC2)cc1 [Example 100, 4-{4-[3-(5-fluoro-2-methoxy-phenyl)-ureido]-phenyl}-piperazine-1-carboxylic acid (2-fluoro-6-trifluoromethyl-phenyl)-amide]	181 to 183	≥ 50
COc1ccc(F)cc1NC(=O)Nc1ccc(N2CCN(C(=O)Nc3c(Cl)cccc3Cl)CC2)cc1 [Example 101, 4-{4-[3-(5-fluoro-2-methoxy-phenyl)-ureido]-phenyl}-piperazine-1-carboxylic acid (2,6-dichloro-phenyl)-amide]	235 to 237	≥ 50
CCOc1ccc(Cl)cc1NC(=O)Nc1ccc(N2CCN(C(=O)Nc3ccccc3C(F)(F)F)CC2)cc1 [Example 102, 4-{4-[3-(5-chloro-2-ethoxy-phenyl)-ureido]-phenyl}-piperazine-1-carboxylic acid (2-trifluoromethyl-phenyl)-amide]	219 to 221	≥ 50
CCOc1ccc(Cl)cc1NC(=O)Nc1ccc(N2CCN(C(=O)Nc3c(C)cccc3Cl)CC2)cc1 [Example 103, 4-{4-[3-(5-chloro-2-ethoxy-phenyl)-ureido]-phenyl}-piperazine-1-carboxylic acid (2-chloro-6-methyl-phenyl)-amide]	159 to 161	≥ 50
CCOc1ccc(Cl)cc1NC(=O)Nc1ccc(N2CCN(C(=O)Nc3c(C)cccc3C)CC2)cc1 [Example 104, 4-{4-[3-(5-chloro-2-ethoxy-phenyl)-ureido]-phenyl}-piperazine-1-carboxylic acid (2,6-dimethyl-phenyl)-amide]	144 to 146	≥ 50
CCOc1ccc(Cl)cc1NC(=O)Nc1ccc(N2CCN(C(=O)Nc3c(F)cccc3C(F)(F)F)CC2)cc1 [Example 105, 4-{4-[3-(5-chloro-2-ethoxy-phenyl)-ureido]-phenyl}-piperazine-1-carboxylic acid (2-fluoro-6-trifluoromethyl-phenyl)-amide]	146 to 148	≥ 50
CCOc1ccc(Cl)cc1NC(=O)Nc1ccc(N2CCN(C(=O)Nc3ccc(OC)cc3C)CC2)cc1 [Example 106, 4-{4-[3-(5-chloro-2-ethoxy-phenyl)-ureido]-phenyl}-piperazine-1-carboxylic acid (4-methoxy-2-methyl-phenyl)-amide]	210 to 213	≥ 50
